US20210244713A1, “ANHYDROUS COMPOSITIONS OF mTOR INHIBITORS AND METHODS OF USE” (PALVELLA THERAPEUTICS, INC., priority 2018, published 2021)

Tests used:
[1] = Solubility of rapamycin in solvents and solvent combination
[2] = Ex vivo skin permeation experiment; format: in vitro ADME, Human
Experimental: Human donor skin was placed between upper and lower compartments. The lower compartment was filled with receiver fluid. Various rapamycin compositions were applied on the surface of the skin facing the upper compartment (11 formulations (i.e., O3, NA21, NA22, NA21, NA17, TD201, NA19, NA25, AG14, NA26 and NA24), n=6 replicates, dosage 10 mg/cm^2) and left for 24 hrs. A positive displacement pipette was used to apply the formulation (˜10 mg/cm^2) to the plunger of a 1 mL syringe. The formulation (10+/−0.5 mg) was applied to the skin surface and spread over the diffusion area using the plunger. Prior to and after the application the weight of the plunger was recorded, from which the dose per cell was calculated.
Following the time period, the excess rapamycin compositions were wiped from the skin surface and the skin layers were separated into stratum corneum, epidermis, and dermis. The Stratum corneum was removed from the human skin using a tape stripping procedure. The epidermis was separated from the dermis by dry heating at 60° C. for 2 min. Rapamycin was extracted from each layer by 90:10 v/v ethanol:water solvent mixture, and quantified. The receiver fluid in the lower compartment was also analyzed for the presence of rapamycin.

For `CO[C@H]1C[C@@H]2CC[C@@H](C)[C@@](O)(O2)C(=O)C(=O)N2CCCC[C@H]2C(=O)O[C@H]([C@H](C)C[C@@H]2CC[C@@H](O)[C@H](OC)C2)CC(=O)[C@H](C)/C=C(\C)[C@@H](O)[C@@H](OC)C(=O)[C@H](C)C[C@H](C)/C=C/C=C/C=C/1C` [Rapamycin, rapamycin (sirolimus)], the “Solubility capacity of each excipient based on concentration in formulation” value (“Solubility capacity … in formulation” below) ([1]; IPA at 15.00 wt %) was 0.56 wt %, the “Solubility capacity … in formulation” value ([1]; IPA at 15.00 wt %, listed as rapamycin) was −0.56 wt % and the “Solubility capacity … in formulation” value ([1]; PEG 400 at 60.00 wt %) was 1.03 wt %. The “Solubility capacity … in formulation” value ([1]; diisopropyl adipate (DIA) at 15.00 wt %) was 0.26 wt %, the “Solubility capacity … in formulation” value ([1]; glycerol at 10.00 wt %) was 0.08 wt % and the “Solubility capacity of the solvent system (expected maximum, simple linear additive effect)” value ([1]; sum of the excipient capacities) was 1.93 wt %. The “amount of rapamycin found on the surface of the skin” value ([2]; after 24 hours, relative to skin layers) was “greatest amount”, the “amount of rapamycin quantified in both the epidermis and dermis over time” value ([2]; ex vivo human skin) was “increase” and the “drug residing in the epidermis versus stratum corneum or dermal layer” value ([2]; ex vivo human skin) was “more of the drug residing in the epidermis”. For the same compound, the “rapamycin detected in the receiver fluid” value ([2]; ex vivo human skin, any of the time points across the experimental period) was “not detected”.
